Laboratory results published in article PMC10018608 (Signal Transduction and Targeted Therapy, 2023).

What follows are compounds tested against T1, SARS-CoV-2 M^pro (Severe acute respiratory syndrome coronavirus 2, UniProt P0DTD1) (assay: Differential scanning fluorimetry (DSF) assay). Conditions: mean ± SD (n = 3).
Format: binding
Description: M^pro was mixed with tested compounds and 5 × SYPRO Orange dye (Sigma) avoiding from light. The thermal denaturation spectra were run from 20 °C to 95 °C at a gradient of 1.5 °C/min (CFX96, BioRad). Data were analyzed by Boltzmann model to calculate the melt temperature (Tm). The equation ΔTm = Tm(compound) − Tm(DMSO) was used to calculate the thermal shift (ΔTm). The values are presented as mean ± SD (n = 3).

Q: For O=C(NCc1nccs1)C(=O)[C@@H](Cc1ccccc1)NC(=O)c1ccccc1 [1a, (R)-N-(3,4-dioxo-1-phenyl-4-((thiazol-2-ylmethyl)amino)butan-2-yl)benzamide], which “thermal shift (ΔTm)” value is on record?
A: The value was 8.45 ± 0.35 °C.

The compounds below were run against T1, SARS-CoV-2 M^pro (assay: biochemical). Conditions: […]; mean ± SD from three experiments.

Q: Which IC50 does the source give for O=C(COc1ccccc1)N[C@H](Cc1ccccc1)C(=O)C(=O)NCc1nccs1 [3f] here?
A: The IC50 was 880.8 ± 1.2 nM.

Q: Which IC50 does the source give for O=C(NCc1nccs1)C(=O)[C@@H](Cc1ccccc1)NC(=O)c1cccc(F)c1 [3b] here?
A: The IC50 was 478 ± 4.8 nM.

Q: O=C(CNC(=O)c1cccc(F)c1)N[C@H](Cc1ccccc1)C(=O)C(=O)NCc1nccs1 [3l] was tested. Which IC50 did it give?
A: The IC50 was 538.2 ± 4.3 nM.

Q: O=C(CNC(=O)c1ccc(F)cc1)N[C@H](Cc1ccccc1)C(=O)C(=O)NCc1nccs1 [3m] was tested. Which IC50 did it give?
A: Its IC50 is 348.4 ± 3 nM.

Q: How did the IC50 turn out when O=C(CC1CC(F)(F)C1)NCC(=O)N[C@H](Cc1ccccc1)C(=O)C(=O)NCc1nccs1 [3q] was run?
A: The IC50 was 23.4 ± 2.2 nM.

Q: C[C@@H](NC(=O)C1CCC(F)(F)C1)C(=O)N[C@H](Cc1ccccc1)C(=O)C(=O)NCc1nccs1 (stereo partly shown) [3t] was tested. Which IC50 did it give?
A: The IC50 was 22.5 ± 0.7 nM.

Q: O=C(CNC(=O)c1ccccc1F)N[C@H](Cc1ccccc1)C(=O)C(=O)NCc1nccs1 [3k] was tested. Which IC50 did it give?
A: The IC50 was 998.3 ± 0.2 nM.

Q: Which IC50 does the source give for O=C(NCc1nccs1)C(=O)[C@@H](Cc1ccccc1)NC(=O)c1ccccc1F [3a, (R)-N-(3,4-dioxo-1-phenyl-4-((thiazol-2-ylmethyl)amino)butan-2-yl)-2-fluorobenzamide] here?
A: The IC50 was 264 ± 4 nM.

Q: How did the IC50 turn out when C[C@@H](NC(=O)C1CCCC(F)(F)C1)C(=O)N[C@H](Cc1ccccc1)C(=O)C(=O)NCc1nccs1 (stereo partly shown) [3s] was run?
A: The IC50 was 28.3 ± 0.6 nM.

Q: With COC[C@@H](NC(=O)C1CCC(F)(F)CC1)C(=O)N[C@H](Cc1ccccc1)C(=O)C(=O)NCc1nccs1 [3v] as the compound, how does the IC50 read?
A: The IC50 was 18.4 ± 1.3 nM.

Q: O=C(CNC(=O)C1CCCC(F)(F)C1)N[C@H](Cc1ccccc1)C(=O)C(=O)NCc1nccs1 (stereo partly shown) [3o] was tested. Which IC50 did it give?
A: Its IC50 is 45.8 ± 2.1 nM.

Q: With O=C(CNC(=O)C1CCC(F)(F)CC1)N[C@H](Cc1ccccc1)C(=O)C(=O)NCc1nccs1 [3n] as the compound, how does the IC50 read?
A: The IC50 was 50.3 ± 2.6 nM.

Q: How did the IC50 turn out when COC[C@@H](NC(=O)CC1CC(F)(F)C1)C(=O)N[C@H](Cc1ccccc1)C(=O)C(=O)NCc1nccs1 [3x] was run?
A: The IC50 was 10.2 ± 0.1 nM.

Q: Which IC50 does the source give for O=C(CNC(=O)C1CCC(F)(F)C1)N[C@H](Cc1ccccc1)C(=O)C(=O)NCc1nccs1 (stereo partly shown) [3p] here?
A: Its IC50 is 56.5 ± 5.4 nM.

Q: Which IC50 does the source give for C[C@@H](NC(=O)CC1CC(F)(F)C1)C(=O)N[C@H](Cc1ccccc1)C(=O)C(=O)NCc1nccs1 [3u] here?
A: Its IC50 is 17.2 ± 0.3 nM.

Q: O=C(Cc1ccccc1)N[C@H](Cc1ccccc1)C(=O)C(=O)NCc1nccs1 [3d] was tested. Which IC50 did it give?
A: The IC50 was 949 ± 39.9 nM.

Same assay, conditions: mean ± SD from three experiments

Q: Which IC50 does the source give for O=C(NCc1cnc(Cl)s1)C(=O)[C@@H](Cc1ccccc1)NC(=O)c1ccccc1 [1j] here?
A: The IC50 was 95200 ± 5990 nM.

Q: How did the IC50 turn out when O=C(NCc1nccs1)C(=O)[C@@H](Cc1cccc(F)c1)NC(=O)c1ccccc1 [2b] was run?
A: Its IC50 is 2550 ± 20 nM.

Q: Which IC50 does the source give for O=C(NCc1ccon1)C(=O)[C@@H](Cc1ccccc1)NC(=O)c1ccccc1 [1f] here?
A: The IC50 was 54740 ± 350 nM.

Q: Which IC50 does the source give for Cc1csc(CNC(=O)C(=O)[C@@H](Cc2ccccc2)NC(=O)c2ccccc2)n1 [1i] here?
A: Its IC50 is 40700 ± 1500 nM.

Q: O=C(NCc1nccs1)C(=O)[C@@H](CC1CCCCC1)NC(=O)c1ccccc1 [2e] was tested. Which IC50 did it give?
A: Its IC50 is 10500 ± 630 nM.

Q: Which IC50 does the source give for O=C(CNC(=O)c1ccccn1)N[C@H](Cc1ccccc1)C(=O)C(=O)NCc1nccs1 [3i] here?
A: Its IC50 is 2240 ± 100 nM.

Q: O=C(NCc1nccs1)C(=O)[C@@H](Cc1ccccc1F)NC(=O)c1ccccc1 [2a] was tested. Which IC50 did it give?
A: Its IC50 is 3500 ± 230 nM.

Q: Which IC50 does the source give for O=C(CNC(=O)c1ccccc1)N[C@H](Cc1ccccc1)C(=O)C(=O)NCc1nccs1 [3g] here?
A: The IC50 was 1860 ± 40 nM.

Q: Which IC50 does the source give for O=C(NCc1cccs1)C(=O)[C@@H](Cc1ccccc1)NC(=O)c1ccccc1 [1b] here?
A: The IC50 was 77300 ± 2310 nM.

Q: How did the IC50 turn out when O=C(NCc1nccs1)C(=O)[C@@H](Cc1ccc(Cl)c(Cl)c1)NC(=O)c1ccccc1 [2g] was run?
A: Its IC50 is 2030 ± 70 nM.

Q: With O=C(CCc1ccccc1)N[C@H](Cc1ccccc1)C(=O)C(=O)NCc1nccs1 [3e] as the compound, how does the IC50 read?
A: The IC50 was 1220 ± 100 nM.

Q: How did the IC50 turn out when O=C(NCc1ncno1)C(=O)[C@@H](Cc1ccccc1)NC(=O)c1ccccc1 [1h] was run?
A: Its IC50 is 62300 ± 2070 nM.

Q: O=C(NCc1nccs1)C(=O)[C@@H](Cc1ccc(F)cc1)NC(=O)c1ccccc1 [2c, (R)-N-(1-(4-fluorophenyl)-3,4-dioxo-4-((thiazol-2-ylmethyl)amino)butan-2-yl)benzamide] was tested. Which IC50 did it give?
A: Its IC50 is 1950 ± 290 nM.

Q: For O=C(NCc1nccs1)C(=O)[C@@H](Cc1cccc(Cl)c1)NC(=O)c1ccccc1 [2f], which IC50 is on record?
A: The IC50 was 1430 ± 150 nM.

Q: For O=C(NCc1nccs1)C(=O)[C@@H](Cc1cc(F)c(F)cc1F)NC(=O)c1ccccc1 [2d], which IC50 is on record?
A: Its IC50 is 3370 ± 180 nM.

Q: O=C(NCc1nccs1)C(=O)[C@@H](Cc1ccccc1)NC(=O)c1ccccc1 [1a, (R)-N-(3,4-dioxo-1-phenyl-4-((thiazol-2-ylmethyl)amino)butan-2-yl)benzamide] was tested. Which IC50 did it give?
A: Its IC50 is 1300 nM.

Q: For O=C(CNC(=O)c1cnccn1)N[C@H](Cc1ccccc1)C(=O)C(=O)NCc1nccs1 [3h], which IC50 is on record?
A: The IC50 was 3620 ± 270 nM.

Q: For O=C(NCc1nccs1)C(=O)[C@@H](Cc1ccccc1)NC(=O)c1ccc(F)cc1 [3c], which IC50 is on record?
A: Its IC50 is 1310 ± 100 nM.

Q: Which IC50 does the source give for O=C(NCc1ncco1)C(=O)[C@@H](Cc1ccccc1)NC(=O)c1ccccc1 [1d] here?
A: The IC50 was 51500 ± 940 nM.

Q: How did the IC50 turn out when O=C(NCc1ncon1)C(=O)[C@@H](Cc1ccccc1)NC(=O)c1ccccc1 [1g] was run?
A: Its IC50 is 53100 ± 3340 nM.

Q: Which IC50 does the source give for O=C(NCc1ccco1)C(=O)[C@@H](Cc1ccccc1)NC(=O)c1ccccc1 [1c] here?
A: The IC50 was 37200 ± 510 nM.

Q: Which IC50 does the source give for O=C(CNC(=O)c1cccnc1)N[C@H](Cc1ccccc1)C(=O)C(=O)NCc1nccs1 [3j] here?
A: The IC50 was 2230 ± 370 nM.

Same assay, conditions: read-out: IC50 against SARS-CoV-2 M^pro (FRET); mean ± SD from three experiments

Q: How did the IC50 turn out when O=C(NCc1cocn1)C(=O)[C@@H](Cc1ccccc1)NC(=O)c1ccccc1 [1e] was run?
A: Its IC50 is 11400 ± 80 nM.
